Consider ten compounds from US6984394B2, “Plastically deformable implant” (Bausch & Lomb Incorporated, priority 1999, dated 2006).

A short description of data set [1]: Surface tension of surface-active agent. Type of data set: physicochemical. The note with it: in aqueous solution. The text has this: According to the present invention, the term fluorine-containing gel is defined as a gel-like preparation which comprises a minimum of one fluorocarbon. In especially useful embodiments of the present invention, the fluorine-containing gel comprises essentially three components, i.e., a fluorocarbon, a fluorine-containing surface-active agent, and water. It is possible for different additives to be added to the fluorocarbon-containing and aqueous components. Certain compositions of surface-active agents, fluorocarbons, and water form gels which are able to completely recover their gel structure after they have been liquefied, for example, by exposure to mechanical pressure or heat. This property of the gels according to the present invention makes it possible for them to be used as a generic implant over a long period of time. If the implant material of such an implant that has been inserted into a bodily orifice were to liquefy, for example, as a result of short-term pressure, the gel structure, due to the reversibility described, would be able to recover when in a state of rest. Thus, the implant according to the present invention has a self-regulating restorative mechanism. This self-regulating restorative mechanism of a polyaphron gel is attributable to the stability of the aphrons that form the gel. After liquefaction, a gel can restore its structure only if its “building blocks,” the aphrons, were not completely destroyed. If a sufficient number of intact aphrons remain after liquefaction, a recovery is possible, and what comes as a surprise is the fact that the aphron structure is transferred to the homogenized regions of the surrounding liquid and that the gel structure is restored in the entire liquid. The stability of the aphrons depends on the intensity of the interaction between water, surface-active agent, and perfluorocarbon, which in turn is determined by the surface properties and the ability of the individual phases to spread on each other's surface. In addition, an important aspect is the intensity of the interactions of the molecules within the films that envelop the aphrons (water/surface-active agent; perfluorocarbon/surface-active agent). Thus, the self-regulating restorative mechanism is activated only if the surface properties of the surface-active agent/water and/or surface-active agent/perfluorocarbon film, on the one hand, and of the internal aphron phase, on the other hand, are properly coordinated, i.e., if the strength of the surface-active agent stabilizes the aphron structure. This can be implemented through the use of fluorine-containing surface-active agents of the general formula RF—Rpol, where RF stands for the linear or branched perfluoroalkyl groups with more than 5 carbon atoms and Rpol stands for a polar hydrocarbon residue which comprises a minimum of one functional group which is selected from CO—NH(R), CO—N(R)2, COO—, COOR, SO3; SO2N(R)2, CH2—O—R, PO2H, PO3H. The molecular weight is preferably >400 g/mol, the surface tension in aqueous solution is <30 mN/m and preferably <20 mN/m. The interfacial tension in aqueous solution with respect to the nonpolar component is <25 mN/m, preferably <10 mN/m, and the concentration is <3%, preferably <0.1%. With nonfluorinated surface-active agents, this can be achieved by means of a strong cohesive effect with an HLB value greater than 25 (HLB=hydrophilic lipophilic balance according to Griffin in J. Soc. Cosmet. Chem. 1 (1949), p. 311).

The nature of data set [2]: Interfacial tension with respect to the nonpolar component. It counts as physicochemical. The following applies: surface-active agent, in aqueous solution. The text has this: According to the present invention, the term fluorine-containing gel is defined as a gel-like preparation which comprises a minimum of one fluorocarbon. In especially useful embodiments of the present invention, the fluorine-containing gel comprises essentially three components, i.e., a fluorocarbon, a fluorine-containing surface-active agent, and water. It is possible for different additives to be added to the fluorocarbon-containing and aqueous components. Certain compositions of surface-active agents, fluorocarbons, and water form gels which are able to completely recover their gel structure after they have been liquefied, for example, by exposure to mechanical pressure or heat. This property of the gels according to the present invention makes it possible for them to be used as a generic implant over a long period of time. If the implant material of such an implant that has been inserted into a bodily orifice were to liquefy, for example, as a result of short-term pressure, the gel structure, due to the reversibility described, would be able to recover when in a state of rest. Thus, the implant according to the present invention has a self-regulating restorative mechanism. This self-regulating restorative mechanism of a polyaphron gel is attributable to the stability of the aphrons that form the gel. After liquefaction, a gel can restore its structure only if its “building blocks,” the aphrons, were not completely destroyed. If a sufficient number of intact aphrons remain after liquefaction, a recovery is possible, and what comes as a surprise is the fact that the aphron structure is transferred to the homogenized regions of the surrounding liquid and that the gel structure is restored in the entire liquid. The stability of the aphrons depends on the intensity of the interaction between water, surface-active agent, and perfluorocarbon, which in turn is determined by the surface properties and the ability of the individual phases to spread on each other's surface. […]

With `C[N+](C)(C)C.O=C([O-])C(F)(F)C(F)(F)C(F)(F)C(F)(F)C(F)(F)C(F)(F)C(F)(F)F` [E 749, Tetramethyl ammonium salt of perfluorooctanoic acid], the “σO = surface tension” value in data set [1] is “σO < 20 mNm”.
For the compound `CC[N+](CC)(CC)CC.O=S(=O)([O-])C(F)(F)C(F)(F)C(F)(F)C(F)(F)C(F)(F)C(F)(F)C(F)(F)C(F)(F)F` [Example B248, Tetraethyl animonium salt of perfluorooctanesulfonic acid], in data set [1], the “σO = surface tension” value is on record as “σO < 20 mNm”.
With `CN(C[C@H](O)[C@@H](O)[C@H](O)[C@H](O)CO)C(=O)C(F)(F)C(F)(F)C(F)(F)C(F)(F)C(F)(F)C(F)(F)C(F)(F)F` [Example T14, Perfluorooctanoic acid N-methyl-D-glucamide], the “σO = surface tension” value in data set [1] is reported as “σO < 20 mNm”.
For the compound `O=C(N(CCO)CC(O)C(O)C(O)C(O)CO)C(F)(F)C(F)(F)C(F)(F)C(F)(F)C(F)(F)C(F)(F)C(F)(F)F` [Example T16, Perfluorooctanoic acid N-(2-hydroxyethyl)-D-glucamide], the “σO = surface tension” value in data set [1] is reported as “σO < 20 mNm”.
Take `O=C(N(CCO)C[C@H](O)[C@@H](O)[C@H](O)[C@H](O)CO)C(F)(F)C(F)(F)C(F)(F)C(F)(F)C(F)(F)C(F)(F)C(F)(F)C(F)(F)C(F)(F)F` [Example T21, Perfluorodecanoic acid N-(2-hydroxyethyl)-D-glucamide]: the “σO = surface tension” value in data set [1] is given as “σO < 20 mNm”.
The same measure, in the same setting: the same measure for `O=C(N(CCO)CCO)C(F)(F)C(F)(F)C(F)(F)C(F)(F)C(F)(F)C(F)(F)C(F)(F)F` [HO31, Perfluorooctanoic acid diethanolamide]: “σO < 20 mNm”.
Consider Fluorinated amine oxide [Fluowet OX], for which the “σO = surface tension” value in data set [1] was found to be 22 mNm. Besides, in data set [2], the “σG = interfacial tension with respect to the nonpolar component” value (from here on “σG = interfacial tension”) is 12 mNm.
In the case of “Perfluoroalkyl ethanol oxethylate [Fluowet OTL]”, the “σO = surface tension” value in data set [1] was 19 mNm. Moreover, the “σG = interfacial tension” value in data set [2] is listed as 10 mNm.
As for “Perfluoroalkyl ethanol oxethylate [Fluowet OTN]”, the “σO = surface tension” value in data set [1] was 18 mNm. Also, the “σG = interfacial tension” value in data set [2] stood at 19 mNm.
In the case of “Perfluorooctanoic acid tetraethyl piperazinium salt [HO224]”, the “σO = surface tension” value in data set [1] is “σO = 16 mNm”.
